According to patent US11800869B2, “Use of 6-oxo-1,4,5,6-tetrahydropyridazine-3-carboxylic acid, 1-methyl 6-oxo-1,4,5,6-tetrahydropyridazine-3-carboxylic acid and 1-alkyl-6-oxo-1,4,5,6-tetrahydropyridazine-3-carboxylic acid for improving growth performance in plants” (Advanced Crop Chem LLP, priority 2020, dated 2023):

Assays:
Type in all cases: in vivo
[1] = system: Wheat plants (Variety AWC 13); assay: Foliar treatment of wheat, foliar and root dry biomass (Example 5); details: foliar treatment at Zadoks GS 15-20, 30 days after application, mean of 10 plants
Excerpt: Wheat plants (Variety AWC 13) were given a foliar treatment of 6-oxo-1,4,5,6-tetrahydropyridazine-3-carboxylic acid(THP) or 1-methyl 6-oxo-1,4,5,6 tetrahydropyridazine-3-carboxylic acid (MTHP) and their foliar and root dry biomass determined 30 days after application. The foliar applications were applied at approximately at Zadoks GS 15-20 (see FIG. 1) and assessed 30 days later at Zadoks GS 22-24 (also shown in FIG. 1).

[2] = system: Field grown wheat plants (Var: AWC 13); assay: Foliar treatment of field grown wheat (Example 6); details: foliar treatment at Zadoks GS 25-26, 100 g in 200 L water, mean of 10 plants
Description: Field grown wheat plants (Var: AWC 13) were given foliar treatment at Zadoks GS 25-26 (FIG. 1) of 6-oxo-1,4,5,6 tetrahydropyridazine-3-carboxylic acid (THP) or 1-methyl 6-oxo-1,4,5,6 tetrahydropyridazine-3-carboxylic acid (MTHP) both at 100 g in 200 L water plus 0.25% Nouryon wetter. Plants were grown under standard UK wheat growing cultural practice (https://andb.org.uk/wheatgg). Yield was assessed at harvest.

[3] = system: wheat seedlings (Var. VitPro); assay: Foliar treatment of wheat seedlings, number of tillers (Example 13); details: counted at Zadoks GS 15, untreated 3.7
Description: Wheat seedlings were given foliar treatments with a range of concentrations of 6-oxo-1,4,5,6 tetrahydropyridazine-3-carboxylic acid and the seedlings were grown and the numbers of tillers each plant produced was monitored as shown in Table 4. The number of tillers is considered positively related to grain yield. Sets of wheat seedlings (Var. VitPro) were given foliar treatments of 6-oxo-1,4,5,6 tetrahydropyridazine-3-carboxylic acid at concentrations of 0.1 mM, 0.01 mM or 0.001 mM *in a standard nutrient solution. Seedlings were given one foliar treatment at Zadoks GS 12 (FIG. 1); the plants grown in a greenhouse and fed a standard plant nutrient solution. The untreated control plants were sprayed with the nutrient solution containing sodium dodecyl sulfate, 0.1% and glycerol 1.2%. The number of tillers for each plant were counted at Zadoks GS 15 (FIG. 1) and the average number of tillers per plant calculated.

[4] = system: Winter wheat variety AWC 13; assay: Wheat seed treatment, field grown, root biomass (Example 14); details: untreated 0.66
Description: Wheat seeds were treated with 6-oxo-1,4,5,6 tetrahydropyridizine-3-carboxylic acid treated plants to examine the impact on shoot and root biomass for field grown plants. Winter wheat variety AWC 13 seeds were treated with 6-oxo-1,4,5,6-tetrahydropyridazine-3-carboxylic acid and field grown. The plants from seeds treated with 6-oxo-1,4,5,6 tetrahydropyridazine-3-carboxylic acid had larger root biomass (0.85 g dry weight/plant) compared with plants from untreated seeds (0.66 g dry weight/plant).

Wheat seeds = assay: Wheat seed treatment, seedling emergence at two temperatures (Example 15); details: 10 g/ton of seeds
Description: Wheat seeds were treated with 6-oxo-1,4,5,6-tetrahydropyridizin-3-carboxylic acid at two different temperature regimes to investigate the affect on germination. Soil temperature impacts the percentage of seeds germinating and how fast seedlings emerge from the soil. Each of these parameters influences how well the plants develop and ultimately crop yield. […] Wheat seeds were treated with 6-oxo-1,4,5,6 tetrahydropyridazine-3-carboxylic acid (THP) at a rate of 10 g/ton of seeds in accordance with the methodology of example 1. Seeds were planted in 12″×12″ germination trays in a 1″ grid, 100 seeds per tray. Growth media was coarse river sand. Additionally, each cell in the grid received one granule of Osmacote approximately above where the seed was planted. Trays were irrigated every day. The seeds were then allowed to germinate at controlled environment chambers at either 10C (50F) or 20C (68 F) to examine the effects at different temperatures. The number of seedlings emerged was tracked daily.

[5] = system: Wheat seeds (Var. VitPro); assay: Wheat seed treatment, leaf wilting under drought (Example 16); details: Drought stress; for Wilted leaves: 0 mM: 40; for Total leaves: 0 mM: 47; for % Wilted leaves: 0 mM: 85%
Description: Wheat seeds were treated with 6-oxo-1,4,5,6 tetrahydropyridazine-3-carboxylic and leaf wilting was tracked to examine the resistance to drought in the seedlings as shown in Table 6. Wheat seeds (Var. VitPro) were treated with an aqueous solution of either 0 mM, 1 mM, 0.5 mM, 0.1 mM or 0.01 mM 6-oxo-1,4,5,6 tetrahydropyridazine-3-carboxylic acid at pH 5.7-5.8. The 0 mM 6-oxo-1,4,5,6-tetrahydropyridizine-3-carboxylic acid seeds were imbibed in aqueous solution containing only the soft soap and glycerol. The plants were allowed to grow to Zadoks GS13 (FIG. 1) when water was withheld until plants in all of the treatments had wilted leaves.

wheat seedlings = assay: Foliar treatment of wheat seedlings, recovery from drought stress (Example 18); set-up: dose or concentration left out as unconfirmed; details: Drought stressed 10 days then 16 days regrowth
Description: Sets of wheat seedlings were given two foliar treatments with 6-oxo-1,4,5,6-tetrahydropyridazine-3-carboxylic acid to examine seedling recovery from drought stress. […] Seedlings were given two foliar treatments: the first at Zadoks GS 12 and at Zadoks GS 14 (FIG. 1). The plants were grown in a greenhouse and fed a standard plant nutrient solution. The plants were drought stressed for 10 days after which water and nutrients were resumed and the plants were allowed to grow for 16 days.

## O=C1CCC(C(=O)O)=NN1 [THP, 6-oxo-1,4,5,6 tetrahydropyridazine-3-carboxylic acid]
[1]; Con 0.47
  Dry Weight Shoot: 1.01
[1]; Con 0.65
  Dry Weight Root: 1.5
[2]; Con 0.47
  Dry Weight Shoot: 1.01
[2]; Con 0.65
  Dry Weight Root: 1.5
[3]; foliar treatment 0.001 mM at Zadoks GS 12
  Tillers per plant, average: 4.1
[3]; foliar treatment 0.01 mM at Zadoks GS 12
  Tillers per plant, average: 9.5
[3]; foliar treatment 0.1 mM at Zadoks GS 12
  Tillers per plant, average: 7.4
[4]
  root biomass: 0.85 g dry weight/plant
Wheat seeds; 10 C., 5 days after planting
  % Emergence: 0%
Wheat seeds; 10 C., 6 days after planting
  % Emergence: 0%
Wheat seeds; 10 C., 7 days after planting
  % Emergence: 11%
Wheat seeds; 10 C., 8 days after planting
  % Emergence: 19%
Wheat seeds; 10 C., 9 days after planting
  % Emergence: 27%
Wheat seeds; 10 C., 10 days after planting
  % Emergence: 60%
Wheat seeds; 10 C., 11 days after planting
  % Emergence: 68%
Wheat seeds; 20 C., 5 days after planting
  % Emergence: 14%
Wheat seeds; 20 C., 6 days after planting
  % Emergence: 48%
Wheat seeds; 20 C., 7 days after planting
  % Emergence: 80%
Wheat seeds; 20 C., 8 days after planting
  % Emergence: 100%
Wheat seeds; 20 C., 9 days after planting
  % Emergence: 100%
Wheat seeds; 20 C., 10 days after planting
  % Emergence: 100%
Wheat seeds; 20 C., 11 days after planting
  % Emergence: 100%
[5]; seed treatment 0.1 mM
  Wilted leaves: 18
  Total leaves: 61
  % Wilted leaves: 30%
[5]; seed treatment 0.5 mM
  Wilted leaves: 14
  Total leaves: 64
  % Wilted leaves: 22%
[5]; seed treatment 1 mM
  Wilted leaves: 19
  Total leaves: 57
  % Wilted leaves: 33%
Wheat seedlings; untreated drought stressed 7.1, normal water 5.4
  Number of seed heads, avg.: 8.3
Wheat seedlings; untreated drought stressed 28.2, normal water 32.3
  Total foliar fresh wt., avg.: 33.4 g
